Results from patent publication US20060154891A1, “Ready-to-use gemcitabine solutions and gemcitabin concentrates” (priority 2004, published 2006).
Structures can show the parent of a compound that is named as a salt. Where two headings read alike, the source gives them in different places.

Key:
[1] = room temperature; strong, aqueous hydrochloric acid solution, pH approximately 3, reconstituted Gemzar lyophilisate; cited from earlier work
[2] = Concentration at which gemcitabine hydrochloride forms a clear solution at room temperature; type: physicochemical
Procedure: At room temperature, gemcitabine hydrochloride forms a clear solution at a concentration of about 40 mg/milliliter in a strong, aqueous hydrochloric acid solution (pH approximately 3, reconstituted Gemzar® lyophilisate, Eli Lilly) or at a concentration of about 15 mg/mL in an aqueous, weakly alkaline solution having a pH of about 8, and at a concentration of up to 110 mg/mL in an alkaline, ethanolic, aqueous solution with a pH of approximately 10.

[3] = pH range from 3 to 10 investigated; EP 1 479 389 A1; cited from earlier work

SMILES	Concentration forming a clear solution [1]	Concentration forming a clear solution ([2]; alkaline, ethanolic, aqueous solution, pH of approximately 10)	Concentration forming a clear solution ([2]; aqueous, weakly alkaline solution, pH of about 8)	pH described as optimum for stability in aqueous solution [3]
Nc1ccn([C@@H]2O[C@H](CO)[C@@H](O)C2(F)F)c(=O)n1 [gemcitabine hydrochloride]	about 40 mg/milliliter	up to 110 mg/mL	about 15 mg/mL	
Nc1ccn([C@@H]2O[C@H](CO)[C@@H](O)C2(F)F)c(=O)n1 [gemcitabine, 2′-deoxy-2′,2′-difluorocytidine]				about 8
